Measured values taken from PubChem BioAssay AID248 (DTP/NCI, 2004).
Values joined by “and” are separate entries in the source; they are usually repeats but may differ in a detail not shown here. Equal values may be shown once. Toxic doses and inconclusive results are not listed. No stated cut-off is given here; in the data, active means T/C of 150% or more; inactive means T/C below 125%.

System: L1210 leukemia ip in BDF1 mice, survival T/C
Assay: NCI In Vivo Anticancer Drug Screen. Data for tumor model L1210 Leukemia (intraperitoneal) in B6D2F1 (BDF1) mice
Conditions: endpoint: mean survival time, higher = longer survival
Summary of the method: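 Ratio derived from survival: compound-dosed mice over vehicle-dosed mice, all bearing a transplantable tumor.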

[1] = dose: 50.0 mg/kg/injection, schedule: Q01DX009 (ip), vehicle: Klucel (hydroxypropylcellulose) (HPC)
[2] = dose: 100.0 mg/kg/injection, schedule: Q01DX009 (ip), vehicle: Klucel (hydroxypropylcellulose) (HPC)
[3] = dose: 200.0 mg/kg/injection, schedule: Q01DX009 (ip), vehicle: Klucel (hydroxypropylcellulose) (HPC)
[4] = dose: 50.0 mg/kg/injection, schedule: Q04DX003 (ip), vehicle: Klucel (hydroxypropylcellulose) (HPC)
[5] = dose: 100.0 mg/kg/injection, schedule: Q04DX003 (ip), vehicle: Klucel (hydroxypropylcellulose) (HPC)
[6] = dose: 50.0 mg/kg/injection, schedule: Q01DX009 (ip), vehicle: saline with Tween-80
[7] = dose: 100.0 mg/kg/injection, schedule: Q01DX009 (ip), vehicle: saline with Tween-80
[8] = dose: 100.0 mg/kg/injection, schedule: Q01DX001 (ip), vehicle: saline
[9] = dose: 200.0 mg/kg/injection, schedule: Q01DX001 (ip), vehicle: saline
[10] = dose: 400.0 mg/kg/injection, schedule: Q01DX001 (ip), vehicle: saline
[11] = dose: 100.0 mg/kg/injection, schedule: Q04DX003 (ip), vehicle: saline with Tween-80
[12] = dose: 200.0 mg/kg/injection, schedule: Q04DX003 (ip), vehicle: saline with Tween-80
[13] = dose: 400.0 mg/kg/injection, schedule: Q04DX003 (ip), vehicle: saline with Tween-80

Measured: T/C

CCNP(=O)(CCl)NC12CC3CC(CC(C3)C1)C2 (stereo not given)
inactive: [1] 91 % of control | [2] 93 % of control | [3] 93 % of control

O=C1N(c2ccccc2)C(c2ccccc2)C1(c1ccccc1)c1ccccc1 (stereo not given)
inactive: dose: 100.0 mg/kg/injection, schedule: Q01DX001 (ip), vehicle: gum acacia 92 % of control | dose: 200.0 mg/kg/injection, schedule: Q01DX001 (ip), vehicle: gum acacia 86 % of control | dose: 400.0 mg/kg/injection, schedule: Q01DX001 (ip), vehicle: gum acacia 94 % of control

CCCC1(C)COB(c2ccc(C)cc2)OC1
inactive: dose: 25.0 mg/kg/injection, schedule: Q01DX009 (ip), vehicle: Klucel (hydroxypropylcellulose) (HPC) 102 % of control | [1] 105 % of control | [4] 92 % of control | [2] 114 % of control | [5] 101 % of control | [3] 122 % of control | dose: 200.0 mg/kg/injection, schedule: Q04DX003 (ip), vehicle: Klucel (hydroxypropylcellulose) (HPC) 92 % of control | dose: 400.0 mg/kg/injection, schedule: Q01DX009 (ip), vehicle: Klucel (hydroxypropylcellulose) (HPC) 88 % of control | dose: 400.0 mg/kg/injection, schedule: Q04DX003 (ip), vehicle: Klucel (hydroxypropylcellulose) (HPC) 95 % of control

COc1ccc(/C=N\NC(=O)CNC(=O)Nc2cccc(Cl)c2)cc1O
inactive: [6] 95 % of control | [7] 92 % of control | dose: 200.0 mg/kg/injection, schedule: Q01DX009 (ip), vehicle: saline with Tween-80 92 % of control

Cc1ccc(N2C(=O)CNC2=O)cc1
inactive: dose: 100.0 mg/kg/injection, schedule: Q01DX001 (ip), vehicle: Klucel (hydroxypropylcellulose) (HPC) 101 % of control | dose: 200.0 mg/kg/injection, schedule: Q01DX001 (ip), vehicle: Klucel (hydroxypropylcellulose) (HPC) 101 % of control | dose: 400.0 mg/kg/injection, schedule: Q01DX001 (ip), vehicle: Klucel (hydroxypropylcellulose) (HPC) 96 % of control

CCOC(Nc1cc(Cl)cc(Cl)c1)C(=O)c1ccccc1 (stereo not given)
inactive: [8] 97 % of control | [9] 91 % of control | [10] 91 % of control

Cn1cc(Br)c2ccccc2c1=O
inactive: dose: 25.0 mg/kg/injection, schedule: Q04DX003 (ip), vehicle: Klucel (hydroxypropylcellulose) (HPC) 87 % of control | [4] 101 % of control | [5] 94 % of control and 124 % of control

CC1=CC(C)(C)NC(=S)N1CCO
inactive: dose: 74.0 mg/kg/injection, schedule: Q01DX Z (ip), vehicle: methylcellulose (MC) 91 % of control | dose: 100.0 mg/kg/injection, schedule: Q04DX002 (ip), vehicle: Klucel (hydroxypropylcellulose) (HPC) 104 % of control | dose: 200.0 mg/kg/injection, schedule: Q04DX002 (ip), vehicle: Klucel (hydroxypropylcellulose) (HPC) 107 % of control

COc1cc(/C=C2/N=C(C)OC2=O)cc(Cl)c1OC
inactive: [8] 87 % of control | [9] 90 % of control | [10] 87 % of control

O=C1OC(=C(c2ccccc2)c2ccccc2)c2ccccc21
inactive: dose: 100.0 mg/kg/injection, schedule: Q01DX009 (ip), vehicle: saline 100 % of control | [11] 96 % of control | dose: 200.0 mg/kg/injection, schedule: Q01DX009 (ip), vehicle: saline 100 % of control | [12] 96 % of control | [13] 90 % of control

CCCCn1c(O)c(C=N)c(=O)n(CCCC)c1=O
inactive: dose: 25.0 mg/kg/injection, schedule: Q01DX009 (ip), vehicle: saline with Tween-80 101 % of control | [6] 90 % of control | [7] 101 % of control and 86 % of control | [11] 89 % of control | [12] 94 % of control | [13] 89 % of control

Cc1noc(C)c1CON
inactive: dose: 75.0 mg/kg/injection, schedule: Q01DX001 (ip), vehicle: saline 100 % of control and 102 % of control | dose: 150.0 mg/kg/injection, schedule: Q01DX001 (ip), vehicle: saline 105 % of control | dose: 300.0 mg/kg/injection, schedule: Q01DX001 (ip), vehicle: saline 94 % of control and 91 % of control

CCN(CC)C(=O)Nc1ccc(O)c(C(=O)O)c1
inactive: [8] 98 % of control | [9] 95 % of control | [10] 96 % of control

CSC(N)=Nc1c(C)cccc1C
inactive: dose: 50.0 mg/kg/injection, schedule: Q04DX003 (ip), vehicle: saline 102 % of control | [8] 98 % of control | dose: 100.0 mg/kg/injection, schedule: Q04DX003 (ip), vehicle: saline 106 % of control | [9] 100 % of control | dose: 200.0 mg/kg/injection, schedule: Q04DX003 (ip), vehicle: saline 101 % of control
